Reference: patent US20170354639A1, “DITERPENOID DERIVATIVES AND METHODS OF USE THEREOF” (Biogen MA Inc., priority 2014, published 2017)

Biological target: Nrf2-Keap1 (Homo sapiens, UniProt Q14145)
Assay: DiscoveRx PathHunter Nrf2-Keap1 nuclear translocation functional assay (agonist format)
Type: cell-based
Conditions: in duplicate, agonist mode; for EC50: 10 concentrations, 3-fold serial dilutions, 30 μM top concentration, normalized to CDDO methyl ester and vehicle; for activation at 10 µM: single concentration of 10 μM, normalized to control ligand (CDDO methyl ester) and vehicle
Procedure: DiscoveRx PathHunter® Nrf2-Keap1 Functional Assay
DiscoveRx's Nrf2-Keapl translocation assay was used to profile compounds. Primary Screening was performed in duplicate at a single concentration of 10 μM and EC50 determinations were performed in duplicate at 10 concentrations with 3-fold serial dilutions at a 30 μM top concentration or an otherwise specified top concentration.
The PathHunter® Nuclear Translocation assay detects translocation of a target protein to, or from, the nucleus. In this system, Prolink™ (PK), a small enzyme fragment, is fused to the protein of interest and Enzyme Acceptor (EA) is localized in the nucleus. Activation of the signaling pathway induces the target protein to either transit into the nucleus, thus forcing complementation of the PK and EA fragments, or out of the nucleus, hindering complementation of the fragments.
Cell handling: PathHunter Pathway cell lines were expanded from freezer stocks according to standard procedures. 5000 cells were seeded in Cell Plating Reagent 0 (containing 1% FBS) to a total volume of 20 μL into white walled, 384-well microplates and incubated for the overnight prior to testing.
Agonist format: For Agonist determination, cells were incubated with sample to induce response. Dilution of sample stocks was performed to generate 100× sample in DMSO. Intermediate dilution of sample stocks was performed to generate 5× sample in assay buffer (Cell Plating Reagent 0 containing 1% FBS). 5 μL of 5× sample was added to cells and incubated at room temperature for 6 hours. Vehicle concentration was 1%.
Signal detection: Assay signal was generated through a single addition of 25 μL (100% v/v) of PathHunter Flash Detection reagent, followed by a one hour incubation at room temperature. Microplates were read following signal generation with a PerkinElmer Envision™ instrument for chemiluminescent signal detection.
Data analysis: Compound activity was analyzed using CBIS data analysis suite (ChemInnovation, CA). For agonist mode assays, percentage activity was calculated using the following formula: % Activity=100%×(mean RLU of test sample−mean RLU of vehicle control)/(mean MAX RLU control ligand−mean RLU of vehicle control). For EC50 determination, a control agonist dose response curve was generated in the Keap 1-Nrf2 biosensor assay, data was normalized to the maximal and minimal response observed in the presence of the control ligand and vehicle respectively. CDDO methyl ester was used as a control compound. Compounds were tested in the agonist mode of the assay and data was normalized to the maximal and minimal response observed in the presence of control ligand and vehicle.

Nrf2-Keap1, sequence (Q14145 whole entry): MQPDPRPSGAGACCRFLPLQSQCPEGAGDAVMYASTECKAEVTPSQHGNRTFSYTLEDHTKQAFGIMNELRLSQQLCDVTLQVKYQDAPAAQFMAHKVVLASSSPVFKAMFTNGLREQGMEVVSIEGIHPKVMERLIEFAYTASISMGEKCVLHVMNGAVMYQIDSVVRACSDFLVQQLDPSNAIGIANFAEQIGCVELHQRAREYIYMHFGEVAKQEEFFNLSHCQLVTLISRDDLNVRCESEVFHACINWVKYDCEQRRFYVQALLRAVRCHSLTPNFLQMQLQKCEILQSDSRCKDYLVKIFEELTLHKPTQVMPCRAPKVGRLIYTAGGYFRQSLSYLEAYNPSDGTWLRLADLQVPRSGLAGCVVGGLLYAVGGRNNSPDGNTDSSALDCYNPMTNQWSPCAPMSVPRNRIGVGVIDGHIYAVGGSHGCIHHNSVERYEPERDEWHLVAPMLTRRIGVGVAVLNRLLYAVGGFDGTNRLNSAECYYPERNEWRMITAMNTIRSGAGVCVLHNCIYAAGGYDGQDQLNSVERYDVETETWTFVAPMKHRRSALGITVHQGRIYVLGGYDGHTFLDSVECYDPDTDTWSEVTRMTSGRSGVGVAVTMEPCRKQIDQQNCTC

EC50 [nM]	activation at 10 µM (6 h) [%]	Compound	activation at 10 µM (6 hours) [%]
> 2000	–	C=C1CC[C@@H]2[C@]3(C)COCO[C@@H]3CC[C@@]2(C)[C@@H]1C/C=C1/C(=O)OCC1NC(=O)COC (single isomer, unassigned) [Example 46A]	–
< 500	–	C=C1CC[C@@H]2[C@@H](C)[C@@](O)(C(F)(F)F)CC[C@@]2(C)[C@@H]1C/C=C1/C(=O)OC[C@H]1O [Example 42B, (S,E)-4-hydroxy-3-(2-((1R,4aR,5R,6R,8aR)-6-hydroxy-5,8a-dimethyl-2-methylene-6-(trifluoromethyl)decahydronaphthalen-1-yl)ethylidene)dihydrofuran-2(3H)-one]	–
500 to 2000	–	C=C1CC[C@@H]2[C@]3(C)COS(=O)O[C@@H]3CC[C@@]2(C)[C@@H]1C/C=C1/C(=O)OCC1NC(=O)CO (single isomer, unassigned) [Example 41B]	–
> 2000	–	C=C1CC[C@@H]2[C@@H](C)[C@](O)(C(F)(F)F)CC[C@@]2(C)[C@@H]1C/C=C1/C(=O)OCC1NC=O (single isomer, unassigned) [Example 44A]	–
< 500	–	C=C1CC[C@@H]2[C@@H](C)[C@](O)(C(F)(F)F)CC[C@@]2(C)[C@@H]1C/C=C1/C(=O)OC[C@H]1O [Example 42A, (S,E)-4-hydroxy-3-(2-((1R,4aR,5R,6S,8aR)-6-hydroxy-5,8a-dimethyl-2-methylene-6-(trifluoromethyl)decahydronaphthalen-1-yl)ethylidene)dihydrofuran-2(3H)one]	–
> 2000	–	C=C1CC[C@@H]2[C@]3(C)COCO[C@@H]3CC[C@@]2(C)[C@@H]1C/C=C1/C(=O)OCC1NC(C)=O (single isomer, unassigned) [Example 45B]	–

Continued, compound first:

Compound	EC50 [nM]	activation at 10 µM (6 h) [%]	activation at 10 µM (6 hours) [%]
CO[C@@H]1CC[C@@]2(C)[C@H](C/C=C3/C(=O)OC[C@H]3O)C(C)=CC[C@@H]2[C@H]1C [Example 17, (S,E)-4-hydroxy-3-(2-((1R,4aR,5R,6R,8aR)-6-methoxy-2,5,8a-trimethyl-1,4,4a,5,6,7,8,8a-octahydronaphthalen-1-yl)ethylidene)dihydrofuran-2(3H)-one]	500 to 2000	51 to 100	–
C=C1CC[C@@H]2[C@@H](C)[C@H](NC)CC[C@@]2(C)[C@@H]1C/C=C1/C(=O)OC[C@H]1O [Example 15, (4S,E)-3-(2-((1R,4aR,5R,8aR)-5,8a-dimethyl-6-(methylamino)-2-methylenedecahydronaphthalen-1-yl)ethylidene)-4-hydroxydihydrofuran-2(3H)-one]	500 to 2000	51 to 100	–
C=C1CC[C@@H]2[C@@H](C)[C@H](O)CC[C@@]2(C)[C@@H]1C/C=C1/C(=O)OC[C@H]1O [Example 2, (S,E)-4-hydroxy-3-(2-((1R,4aR,5R,6R,8aR)-6-hydroxy-5,8a-dimethyl-2-methylenedecahydronaphthalen-1-yl)ethylidene)dihydrofuran-2(3H)-one]	< 500	> 100	–
CC1(C)CCC[C@@]2(C)[C@H]1CCC1(CC1)[C@@H]2C/C=C1/C(=O)OC[C@H]1NC=O [Example 24, N—((S,E)-5-oxo-4-(2-((1′S,4a′S,8a′S)-5′,5′,8a′-trimethyloctahydro-1′H-spiro[cyclopropane-1,2′-naphthalen]-1′-yl)ethylidene)tetrahydrofuran-3-yl)formamide]	–	51 to 100	–
C=C1CC[C@@H]2[C@]3(C)COS(=O)O[C@@H]3CC[C@@]2(C)[C@@H]1C/C=C1/C(=O)OCC1NC(=O)COC (single isomer, unassigned) [Example 40B]	500 to 2000	–	> 100
C=C1CC[C@@H]2[C@]3(C)COS(=O)O[C@@H]3CC[C@@]2(C)[C@@H]1C/C=C1/C(=O)OC[C@H]1NC=O (single isomer, unassigned) [Example 20]	500 to 2000	> 100	–
CC(=O)N[C@@H]1COC(=O)/C1=C/C[C@H]1C2(CC[C@H]3C(C)(C)CCC[C@@]31C)CC2 [Example 26, N—((S,E)-5-oxo-4-(2-((1′S,4a′S,8a′S)-5′,5′,8a′-trimethyloctahydro-1′H-spiro[cyclopropane-1,2′-naphthalen]-1′-yl)ethylidene)tetrahydrofuran-3-yl)acetamide]	–	30 to 50	–
CO[C@@H]1CC[C@@]2(C)C(C/C=C3/C(=O)OC[C@H]3O)=C(C)CC[C@@H]2[C@H]1C [Example 18, (S,E)-4-hydroxy-3-(2-((4aR,5R,6R,8aR)-6-methoxy-2,5,8a-trimethyl-3,4,4a,5,6,7,8,8a-octahydronaphthalen-1-yl)ethylidene)dihydrofuran-2(3H)-one]	–	30 to 50	–
C=C1CC[C@@H]2[C@@H](C)[C@](C)(O)CC[C@@]2(C)[C@@H]1C/C=C1/C(=O)OC[C@H]1O [Example 4, (S,E)-4-hydroxy-3-(2-((1R,4aR,5R,6R,8aR)-6-hydroxy-5,6,8a-trimethyl-2-methylenedecahydronaphthalen-1-yl)ethylidene)dihydrofuran-2(3H)-one]	< 500	> 100	–
CC1(C)CCC[C@@]2(C)[C@H]1CCC1(CC1)[C@@H]2CC/C=C1\C(=O)OC[C@H]1NC=O [Example 34, N-((S,Z)-5-oxo-4-(3-((l′S,4a′S,8a′S)-5′,5′,8a′-trimethyloctahydro-1′H-spiro[cyclopropane-1,2′-naphthalen]-1′-yl)propylidene)tetrahydrofuran-3-yl)formamide]	–	30 to 50	–
CC(=O)N[C@@H]1COC(=O)/C1=C\C[C@H]1C2(CC[C@H]3C(C)(C)CCC[C@@]31C)CC2 [Example 27, N—((S,Z)-5-oxo-4-(2-((1′S,4a′S,8a′S)-5′,5′,8a′-trimethyloctahydro-1′H-spiro[cyclopropane-1,2′-naphthalen]-1′-yl)ethylidene)tetrahydrofuran-3-yl)acetamide]	–	30 to 50	–
C=C1CC[C@@H]2[C@]3(C)CO[S@@](=O)O[C@@H]3CC[C@@]2(C)[C@@H]1C/C=C1/C(=O)OC[C@H]1O [Example 9, (S,E)-3-(2-((3R,4aR,6aS,7R,10aS,10bR)-6a,10b-dimethyl-8-methylene-3-oxidodecahydro-1H-naphtho[2,1-d][1,3,2]dioxathiin-7-yl)ethylidene)-4-hydroxydihydrofuran-2(3H)-one]	500 to 2000	–	–
CC(=O)N[C@@H]1COC(=O)/C1=C/CC[C@H]1C2(CC[C@H]3C(C)(C)CCC[C@@]31C)CC2 [Example 35, N-((S,E)-5-oxo-4-(3-((1′S,4a′S,8a′S)-5′,5′,8a′-trimethyloctahydro-1′H-spiro[cyclopropane-1,2′-naphthalen]-1′-yl)propylidene)tetrahydrofuran-3-yl)acetamide]	> 2000	51 to 100	–
C=C1CC[C@@H]2[C@@H](C)[C@@](C)(O)CC[C@@]2(C)[C@@H]1C/C=C1/C(=O)OC[C@H]1O [Example 5, (S,E)-4-hydroxy-3-(2-((1R,4aR,5R,6S,8aR)-6-hydroxy-5,6,8a-trimethyl-2-methylenedecahydronaphthalen-1-yl)ethylidene)dihydrofuran-2(3H)-one]	< 500	> 100	–
C=C1CC[C@H]2[C@@](C)(CC[C@@]3(C)ON=C[C@@]23C)[C@@H]1C/C=C1/C(=O)OC[C@H]1O [Example 14, (S,E)-4-hydroxy-3-(2-((3aR,5aS,6R,9aS,9bR)-3a,5a,9b-trimethyl-7-methylene-3a,4,5,5a,6,7,8,9,9a,9b-decahydronaphtho[1,2-d]isoxazol-6-yl)ethylidene)dihydrofuran-2(3H)-one]	> 2000	> 100	–
